Measurements published in US20260345619A1 (Principia Biopharma Inc., priority 2023, published 2026).

Test: Asthma Quality of Life Questionnaire with Standardized Activities (AQLQ(S))
Format: in vivo, human
Conditions: for AQLQ global score responders at Week 12, number / AQLQ global score responders at Week 12, percentage: improvement ≥0.5 from baseline
Excerpt: The AQLQ(S) is a self-administered patient reported outcome to measure the functional impairments that are most troublesome to adolescents and adults ≥12 years of age as a result of their asthma.
Asthma Quality of Life Questionnaire with Standardized Activities (AQLQ(S)) self-administered (≥12 years)
The AQLQ(S) was designed as a self-administered patient reported outcome to measure the functional impairments that are most troublesome to adolescents and adults ≥12 years of age as a result of their asthma. The instrument is comprised of 32 items, each rated on a 7-point Likert scales from 1 to 7. The AQLQ(S) has 4 domains. The domains and the number of items in each domain are as follows: • Symptoms (12 items) • Activity limitation (11 items) • Emotional function (5 items) • Environmental stimuli (4 items)
A global score is calculated ranging from 1 to 7 and a score by domain. Higher scores indicate better quality of life. […] Patients were to complete the questionnaire in an electronic diary during on-site visits.
Secondary endpoints included pre-bronchodilator FEV1 change from baseline at EOT, ACQ-5 score change from baseline, and AQLQ score change from baseline. Other secondary and exploratory endpoints are described in Table 2.

[1] = 400 mg BID, observed/LOCF imputed, n=29, mITT
[2] = 400 mg TID, observed/LOCF imputed, n=53, mITT

Compound: CC(C)(C=C(C#N)C(=O)N1CCC[C@@H](n2nc(-c3ccc(Oc4ccccc4)cc3F)c3c(N)ncnc32)C1)N1CCN(C2COC2)CC1 (mixture of isomers) [rilzabrutinib, (R)-2-[3-[4-amino-3-(2-fluoro-4-phenoxy-phenyl)pyrazolo[3,4-d]pyrimidin-1-yl]piperidine-1-carbonyl]-4-methyl-4-[4-(oxetan-3-yl)piperazin-1-yl]pent-2-enenitrile]
- AQLQ global score responder analysis at Week 12, OR vs. placebo (95% CI) (400 mg BID, 95% CI 1.19, 20.17, mITT): 4.89
- AQLQ global score responders (including multiply imputed) at Week 12, number (400 mg BID, N=32, mITT): 16.6
- AQLQ global score responders (including multiply imputed) at Week 12, percentage (400 mg BID, N=32, mITT): (51.7)
- AQLQ global score responders at Week 12, number [1]: 15
- AQLQ global score responders at Week 12, percentage [1]: (51.7) (14/1) %
- AQLQ global score change from baseline at Week 12, LS Mean Diff vs. placebo (400 mg BID, mITT, 1 asthma exacerbation within 2 years): 0.75
- AQLQ global score change from baseline at Week 12, LS Mean Diff vs. placebo (400 mg BID, mITT, 2 asthma exacerbations within 2 years): 0.61
- AQLQ global score change from baseline at Week 12, LS Mean Diff vs. placebo (400 mg BID, mITT, >2 asthma exacerbations within 2 years): 1.18
- AQLQ global score change from baseline at Week 12, LS Mean Diff vs. placebo (400 mg BID, mITT, Eastern Europe): 0.08
- AQLQ global score change from baseline at Week 12, LS Mean Diff vs. placebo (400 mg BID, mITT, Latin America): 0.87
- AQLQ global score change from baseline at Week 12, LS Mean Diff vs. placebo (400 mg BID, mITT, age <45 years): 0.20
- AQLQ global score change from baseline at Week 12, LS Mean Diff vs. placebo (400 mg BID, mITT, age at asthma onset <12 years): 0.34
- AQLQ global score change from baseline at Week 12, LS Mean Diff vs. placebo (400 mg BID, mITT, age at asthma onset <18 years): 0.43
- AQLQ global score change from baseline at Week 12, LS Mean Diff vs. placebo (400 mg BID, mITT, age at asthma onset ≥12-<18 years): 2.49
- AQLQ global score change from baseline at Week 12, LS Mean Diff vs. placebo (400 mg BID, mITT, age at asthma onset ≥18-<40 years): 0.57
- AQLQ global score change from baseline at Week 12, LS Mean Diff vs. placebo (400 mg BID, mITT, age at asthma onset ≥18 years): 0.75
- AQLQ global score change from baseline at Week 12, LS Mean Diff vs. placebo (400 mg BID, mITT, age at asthma onset ≥40 years): 0.93
- AQLQ global score change from baseline at Week 12, LS Mean Diff vs. placebo (400 mg BID, mITT, age ≥45 years): 1.04
- AQLQ global score change from baseline at Week 12, LS Mean Diff vs. placebo (400 mg BID, mITT, all others than low EOS and low FeNO): 0.61
- AQLQ global score change from baseline at Week 12, LS Mean Diff vs. placebo (400 mg BID, mITT, atopic medical conditions: no): 1.08
- AQLQ global score change from baseline at Week 12, LS Mean Diff vs. placebo (400 mg BID, mITT, atopic medical conditions: yes): 0.52
- AQLQ global score change from baseline at Week 12, LS Mean Diff vs. placebo (400 mg BID, mITT, baseline ACQ-5 score >2): 0.95
- AQLQ global score change from baseline at Week 12, LS Mean Diff vs. placebo (400 mg BID, mITT, baseline ACQ-5 score ≤2): 0.43
- AQLQ global score change from baseline at Week 12, LS Mean Diff vs. placebo (400 mg BID, mITT, baseline BMI <25 kg/m^2): 1.00
- AQLQ global score change from baseline at Week 12, LS Mean Diff vs. placebo (400 mg BID, mITT, baseline BMI ≥25-<30 kg/m^2): 0.67
- AQLQ global score change from baseline at Week 12, LS Mean Diff vs. placebo (400 mg BID, mITT, baseline BMI ≥30 kg/m^2): 0.73
- AQLQ global score change from baseline at Week 12, LS Mean Diff vs. placebo (400 mg BID, mITT, baseline FEV1 reversibility <12%): 0.73
- AQLQ global score change from baseline at Week 12, LS Mean Diff vs. placebo (400 mg BID, mITT, baseline FEV1 reversibility ≥12%): 0.29
- AQLQ global score change from baseline at Week 12, LS Mean Diff vs. placebo (400 mg BID, mITT, baseline FeNO <25 ppb): 0.98
- AQLQ global score change from baseline at Week 12, LS Mean Diff vs. placebo (400 mg BID, mITT, baseline FeNO <35 ppb): 0.84
- AQLQ global score change from baseline at Week 12, LS Mean Diff vs. placebo (400 mg BID, mITT, baseline FeNO ≥25 ppb): 0.51
- AQLQ global score change from baseline at Week 12, LS Mean Diff vs. placebo (400 mg BID, mITT, baseline FeNO ≥35 ppb): 0.77
- AQLQ global score change from baseline at Week 12, LS Mean Diff vs. placebo (400 mg BID, mITT, baseline IgE <100 IU/mL): 0.90
- AQLQ global score change from baseline at Week 12, LS Mean Diff vs. placebo (400 mg BID, mITT, baseline IgE <median 210.8 IU/mL): 1.03
- AQLQ global score change from baseline at Week 12, LS Mean Diff vs. placebo (400 mg BID, mITT, baseline IgE ≥100 IU/mL): 0.59
- AQLQ global score change from baseline at Week 12, LS Mean Diff vs. placebo (400 mg BID, mITT, baseline IgE ≥median 210.8 IU/mL): 0.67
- AQLQ global score change from baseline at Week 12, LS Mean Diff vs. placebo (400 mg BID, mITT, baseline blood eosinophil level 1 <0.15 10^9/L): 0.62
- AQLQ global score change from baseline at Week 12, LS Mean Diff vs. placebo (400 mg BID, mITT, baseline blood eosinophil level 1 ≥0.15 10^9/L): 0.69
- AQLQ global score change from baseline at Week 12, LS Mean Diff vs. placebo (400 mg BID, mITT, baseline blood eosinophil level 2 <0.3 10^9/L): 0.79
- AQLQ global score change from baseline at Week 12, LS Mean Diff vs. placebo (400 mg BID, mITT, baseline blood eosinophil level 2 ≥0.3 10^9/L): 0.67
- AQLQ global score change from baseline at Week 12, LS Mean Diff vs. placebo (400 mg BID, mITT, baseline percent predicted FEV1 <68%): 0.92
- AQLQ global score change from baseline at Week 12, LS Mean Diff vs. placebo (400 mg BID, mITT, baseline percent predicted FEV1 ≥68%): 0.47
- AQLQ global score change from baseline at Week 12, LS Mean Diff vs. placebo (400 mg BID, mITT, baseline pre-bronchodilator FEV1 <2.022 L): 0.89
- AQLQ global score change from baseline at Week 12, LS Mean Diff vs. placebo (400 mg BID, mITT, baseline pre-bronchodilator FEV1 ≥2.022 L): 0.54
- AQLQ global score change from baseline at Week 12, LS Mean Diff vs. placebo (400 mg BID, mITT, baseline weight <60 kg): 1.63
- AQLQ global score change from baseline at Week 12, LS Mean Diff vs. placebo (400 mg BID, mITT, baseline weight ≥60-<90 kg): 0.70
- AQLQ global score change from baseline at Week 12, LS Mean Diff vs. placebo (400 mg BID, mITT, baseline weight ≥90 kg): −0.26
- AQLQ global score change from baseline at Week 12, LS Mean Diff vs. placebo (400 mg BID, mITT, female): 0.73
- AQLQ global score change from baseline at Week 12, LS Mean Diff vs. placebo (400 mg BID, mITT, former smokers): 1.89
- AQLQ global score change from baseline at Week 12, LS Mean Diff vs. placebo (400 mg BID, mITT, low EOS (<0.15) and low FeNO (<25)): 2.45
- AQLQ global score change from baseline at Week 12, LS Mean Diff vs. placebo (400 mg BID, mITT, male): 0.41
- AQLQ global score change from baseline at Week 12, LS Mean Diff vs. placebo (400 mg BID, mITT, never smokers): 0.65
- AQLQ global score non-responders at Week 12, number [1]: 14
- AQLQ global score non-responders at Week 12, percentage [1]: (48.3) (10/4)
- participants with AQLQ improvement of at least 0.5 from baseline at Week 12 (400 mg BID, placebo 34.5%, p=0.0281): 51.7%
- AQLQ global score responder analysis at Week 12, OR vs. placebo (95% CI) (400 mg TID, 95% CI 1.02, 4.89, mITT): 2.23
- AQLQ global score responders (including multiply imputed) at Week 12, number (400 mg TID, N=64, mITT): 32.9
- AQLQ global score responders (including multiply imputed) at Week 12, percentage (400 mg TID, N=64, mITT): (51.4)
- AQLQ global score responders at Week 12, number [2]: 29
- AQLQ global score responders at Week 12, percentage [2]: (54.7) (28/1) %
- AQLQ global score change from baseline at Week 12, LS Mean Diff vs. placebo (400 mg TID, mITT, 1 asthma exacerbation within 2 years): 0.29
- AQLQ global score change from baseline at Week 12, LS Mean Diff vs. placebo (400 mg TID, mITT, 2 asthma exacerbations within 2 years): 0.27
- AQLQ global score change from baseline at Week 12, LS Mean Diff vs. placebo (400 mg TID, mITT, Eastern Europe): 0.43
- AQLQ global score change from baseline at Week 12, LS Mean Diff vs. placebo (400 mg TID, mITT, Latin America): −0.22
- AQLQ global score change from baseline at Week 12, LS Mean Diff vs. placebo (400 mg TID, mITT, age <45 years): 0.43
- AQLQ global score change from baseline at Week 12, LS Mean Diff vs. placebo (400 mg TID, mITT, age at asthma onset <12 years): 0.46
- AQLQ global score change from baseline at Week 12, LS Mean Diff vs. placebo (400 mg TID, mITT, age at asthma onset <18 years): 0.31
- AQLQ global score change from baseline at Week 12, LS Mean Diff vs. placebo (400 mg TID, mITT, age at asthma onset ≥12-<18 years): −0.37
- AQLQ global score change from baseline at Week 12, LS Mean Diff vs. placebo (400 mg TID, mITT, age at asthma onset ≥18-<40 years): 0.25
- AQLQ global score change from baseline at Week 12, LS Mean Diff vs. placebo (400 mg TID, mITT, age at asthma onset ≥18 years): 0.24
- AQLQ global score change from baseline at Week 12, LS Mean Diff vs. placebo (400 mg TID, mITT, age at asthma onset ≥40 years): 0.29
- AQLQ global score change from baseline at Week 12, LS Mean Diff vs. placebo (400 mg TID, mITT, age ≥45 years): 0.15
